Test results: ChEMBL document CHEMBL1201862, “PubChem BioAssay data set” (2004)
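1) Cells in 96-well plates. 2) Compound, 48 h, 5 concentrations. 3) Linear interpolation between surrounding doses. 4) Unreached endpoint = highest concentration. GI50 is the concentration that inhibits growth by half.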 The source made the active and inactive calls. Rule as the data show it: active = GI50 up to about 1.1 µM and inactive = higher.

Experiments:
Experiment in all cases: NCI-60 cell line screen, 48 h
DMS-114 = test system: DMS-114
M14 = test system: M14
LXFL 529 = test system: LXFL 529
A549 = test system: A549
DMS-273 = test system: DMS-273
HCT-116 = test system: HCT-116
OVCAR-4 = test system: OVCAR-4
SNB-75 = test system: SNB-75
SF-295 = test system: SF-295
SK-MEL-28 = test system: SK-MEL-28
TK-10 = test system: TK-10
MOLT-4 = test system: MOLT-4
RXF 393 = test system: RXF 393
HT-29 = test system: HT-29
COLO 205 = test system: COLO 205
CCRF-CEM = test system: CCRF-CEM
SW-620 = test system: SW-620
SK-MEL-5 = test system: SK-MEL-5
IGROV-1 = test system: IGROV-1
HOP-18 = test system: HOP-18
UACC-62 = test system: UACC-62
SN12C = test system: SN12C
OVCAR-8 = test system: OVCAR-8
SK-OV-3 = test system: SK-OV-3
DLD-1 = test system: DLD-1
SNB-19 = test system: SNB-19
ACHN = test system: ACHN
HOP-62 = test system: HOP-62
HCT-15 = test system: HCT-15
CAKI-1 = test system: CAKI-1
HL-60 = test system: HL-60
RPMI-8226 = test system: RPMI-8226
HCC 2998 = test system: HCC 2998
XF498 = test system: XF498
NCI-H23 = test system: NCI-H23
786-0 = test system: 786-0
RXF 631 = test system: RXF 631
K562 = test system: K562
SNB-78 = test system: SNB-78
EKVX = test system: EKVX
A498 = test system: A498
HOP-92 = test system: HOP-92
LOX IMVI = test system: LOX IMVI
NCI-H460 = test system: NCI-H460
UACC-257 = test system: UACC-257
SF-539 = test system: SF-539
U-251 = test system: U-251
M19-MEL = test system: M19-MEL
OVCAR-3 = test system: OVCAR-3
KM-20L2 = test system: KM-20L2
KM12 = test system: KM12
NCI-H226 = test system: NCI-H226
SF-268 = test system: SF-268
NCI-H522 = test system: NCI-H522
OVCAR-5 = test system: OVCAR-5
SK-MEL-2 = test system: SK-MEL-2
Malme-3M = test system: Malme-3M
UO-31 = test system: UO-31

With `CC(C)(C)c1cc(O)c2c(c1O)C(=O)CCC2` the GI50 (DMS-114) was 20.3 µM (inactive), the GI50 (M14) was 34.9 µM (inactive) and the GI50 (LXFL 529) was 34.8 µM (inactive). For the same compound, the GI50 (A549) was 35.9 µM (inactive), the GI50 (DMS-273) was 34.8 µM (inactive) and the GI50 (HCT-116) was 31.7 µM (inactive). For the same compound, the GI50 (OVCAR-4) was 30.2 µM (inactive), the GI50 (SNB-75) was 42.4 µM (inactive) and the GI50 (SF-295) was 30.2 µM (inactive). For the same compound, the GI50 (SK-MEL-28) was 42.6 µM (inactive), the GI50 (TK-10) was 40.9 µM (inactive) and the GI50 (MOLT-4) was 23.9 µM (inactive). The GI50 (RXF 393) was 19.1 µM (inactive), the GI50 (HT-29) was 32.9 µM (inactive) and the GI50 (COLO 205) was 73.8 µM (inactive). The GI50 (CCRF-CEM) was 35.2 µM (inactive), the GI50 (SW-620) was 57.8 µM (inactive) and the GI50 (SK-MEL-5) was 18.4 µM (inactive). The GI50 (IGROV-1) was 40.7 µM (inactive), the GI50 (HOP-18) was 60.5 µM (inactive) and the GI50 (UACC-62) was 26 µM (inactive). For the same compound, the GI50 (SN12C) was 41.8 µM (inactive), the GI50 (OVCAR-8) was 36.7 µM (inactive) and the GI50 (SK-OV-3) was 40.5 µM (inactive). For the same compound, the GI50 (DLD-1) was 37.9 µM (inactive), the GI50 (SNB-19) was 32.7 µM (inactive) and the GI50 (ACHN) was 50.2 µM (inactive). The GI50 (HOP-62) was 22.8 µM (inactive), the GI50 (HCT-15) was 40.8 µM and the GI50 (CAKI-1) was 22.5 µM (inactive). For the same compound, the GI50 (HL-60) was 20.2 µM (inactive), the GI50 (RPMI-8226) was 21.1 µM (inactive) and the GI50 (HCC 2998) was 36.7 µM (inactive). The GI50 (XF498) was 31.1 µM (inactive), the GI50 (NCI-H23) was 28.9 µM (inactive) and the GI50 (786-0) was 32.1 µM (inactive). The GI50 (RXF 631) was 57.7 µM (inactive), the GI50 (K562) was 30.3 µM (inactive) and the GI50 (SNB-78) was 32.7 µM (inactive). For the same compound, the GI50 (EKVX) was 54.8 µM (inactive), the GI50 (A498) was 40.6 µM (inactive) and the GI50 (HOP-92) was 2.69 µM (inactive). For the same compound, the GI50 (LOX IMVI) was 28.4 µM (inactive), the GI50 (NCI-H460) was 48 µM (inactive) and the GI50 (UACC-257) was 29.4 µM (inactive). The GI50 (SF-539) was 42.3 µM (inactive), the GI50 (U-251) was 50.7 µM (inactive) and the GI50 (M19-MEL) was 30.5 µM (inactive). For the same compound, the GI50 (OVCAR-3) was 25.6 µM (inactive) and the GI50 (KM-20L2) was 40.1 µM (inactive).

`O=C(CCC(=O)Nc1cccc(C(F)(F)F)c1)CC(=O)c1ccc2ccccc2c1` was tested, and the GI50 (DMS-114) was > 100 µM (inactive), the GI50 (M14) was > 100 µM (inactive) and the GI50 (LXFL 529) was > 100 µM (inactive). The GI50 (A549) was > 100 µM (inactive), the GI50 (DMS-273) was > 100 µM (inactive) and the GI50 (HCT-116) was > 100 µM (inactive). The GI50 (OVCAR-4) was > 100 µM (inactive), the GI50 (KM12) was > 100 µM (inactive) and the GI50 (SF-295) was > 100 µM (inactive). The GI50 (TK-10) was > 100 µM (inactive), the GI50 (MOLT-4) was > 100 µM (inactive) and the GI50 (HT-29) was > 100 µM (inactive). For the same compound, the GI50 (COLO 205) was > 100 µM (inactive), the GI50 (CCRF-CEM) was > 100 µM (inactive) and the GI50 (SW-620) was > 100 µM (inactive). The GI50 (SK-MEL-5) was > 100 µM (inactive), the GI50 (IGROV-1) was > 100 µM (inactive) and the GI50 (HOP-18) was > 100 µM (inactive). For the same compound, the GI50 (UACC-62) was > 100 µM (inactive), the GI50 (SN12C) was > 100 µM (inactive) and the GI50 (OVCAR-8) was > 100 µM (inactive). The GI50 (SK-OV-3) was > 100 µM (inactive), the GI50 (DLD-1) was > 100 µM (inactive) and the GI50 (SNB-19) was > 100 µM (inactive). For the same compound, the GI50 (ACHN) was > 100 µM (inactive), the GI50 (NCI-H226) was > 100 µM (inactive) and the GI50 (HCT-15) was greater than 100 µM. For the same compound, the GI50 (CAKI-1) was > 100 µM (inactive), the GI50 (HL-60) was > 100 µM (inactive) and the GI50 (SF-268) was > 100 µM (inactive). The GI50 (RPMI-8226) was > 100 µM (inactive), the GI50 (NCI-H522) was > 100 µM (inactive) and the GI50 (HCC 2998) was > 100 µM (inactive). For the same compound, the GI50 (XF498) was > 100 µM (inactive), the GI50 (NCI-H23) was > 100 µM (inactive) and the GI50 (786-0) was > 100 µM (inactive). For the same compound, the GI50 (RXF 631) was > 100 µM (inactive), the GI50 (K562) was > 100 µM (inactive) and the GI50 (SNB-78) was > 100 µM (inactive). The GI50 (OVCAR-5) was > 100 µM (inactive), the GI50 (EKVX) was > 100 µM (inactive) and the GI50 (A498) was > 100 µM (inactive). The GI50 (HOP-92) was > 100 µM (inactive), the GI50 (SK-MEL-2) was > 100 µM (inactive) and the GI50 (LOX IMVI) was > 100 µM (inactive). The GI50 (Malme-3M) was > 100 µM (inactive), the GI50 (NCI-H460) was > 100 µM (inactive) and the GI50 (UACC-257) was > 100 µM (inactive). The GI50 (SF-539) was > 100 µM (inactive), the GI50 (U-251) was > 100 µM (inactive) and the GI50 (M19-MEL) was > 100 µM (inactive). The GI50 (UO-31) was > 100 µM (inactive), the GI50 (OVCAR-3) was > 100 µM (inactive) and the GI50 (KM-20L2) was > 100 µM (inactive).
